Tests used:
human monocytes = test: Inhibition of human monocyte/macrophage Fcγ receptor mediated phagocytosis; type: cell-based; conditions: 90 min at 37° C.; for % Phagocytic Cells (percent of monocytes/macrophages phagocytosing IgG sensitized cells): buffer control 42%; for PI (phagocytic index, ingested IgG-sensitized cells per 100 monocytes): buffer control 105
Procedure: The agents to be tested (haloperidol, SCH-23390 and sulpiride) were incubated with human monocytes isolated using lymphocyte separation medium. Incubation was for 90 min at 37° C. Buffer (PBS) treated cells served as a control. At the end of the incubation period, monocytes were exposed to IgG-sensitized cells in accordance with the phagocytic assay of Indik et al, Blood 86:4389 (1995).

[1] = system: aortic atherosclerosis in hypercholesterolemic rabbits; test: Gross examination of the aortas (occlusion); type: in vivo, Male New Zealand White rabbits; conditions: treated animals vs control
Text: With the control animals, there was about 42% occlusion. With the low dose progesterone there was 6% occlusion and with the high dose progesterone there was 0% occlusion evident.

[2] = Quantitative serum lipid analysis (cholesterol, triglyceride) in cholesterol-fed rabbits; type: in vivo, Male New Zealand White rabbits; conditions: change relative to control group; estriol 1 mg/kg; haloperidol 1/10/5 mg/kg s.c. daily
Text: (§1) Serum lipid levels and I/M were expressed as the mean+SEM for all animals. The changes in lipid levels before and after the treatment period were compared using paired t-tests. The differences between the treatment groups and controls were compared using analysis of variance (ANOVA) techniques. Repeated Measures ANOVA was used to compare the difference in plaque loads among the five groups. Multiple regression models were used to compare the differences in plaque loads between the four treatment groups and the control group, adjusting for the difference in cholesterol and triglyceride levels. P<0.05 was considered statistically significant.

[3] = system: aortic atherosclerotic plaque in hypercholesterolemic rabbits; test: Histomorphometric analysis of aortic plaque load (I/M); type: in vivo, Male New Zealand White rabbits; conditions: for aortic plaque load vs controls after controlling for changes in serum C and T levels (multiple regression): estriol 1 mg/kg (P=0.052), haloperidol 1/10/5 mg/kg (P=0.069); for (I/M)/(I/M)CG: relative to control group, estriol 1 mg/kg, haloperidol 1/10/5 mg/kg s.c. daily
Procedure: Five-micron, serial histologic sections (15 each) of 27 ascending aortas were cut from paraffin blocks, stained with hematoxylin and eosin (H&E) and were studied by light microscopy. Images of tissue sections were captured to a Power Macintosh 7300/200 computer by a Hitachi 3-CCD Color Camera (model HV-C20) attached to a Nikon Eclipse E600 microscope. With digital imaging (IPLap Spectrum, Signal Analytics Corporation, Vienna, Va.), they were then analyzed by manual color segmentation by tracting the endothelial surface (intima), internal elastic lamina, and external elastic lamina of each vessel. From segmented images, intimal and medial areas were computed, allowing calculation of intima to media ratios. Plaque load for each aorta was defined as the ratio of intimal area to medial area (I/M).
as §1

[4] = Tolerability / survival during 12-week treatment; conditions: E: after 18 days; H: at 39 and 71 days, failure to thrive; n=6 per group
Procedure: (§2) Male New Zealand White rabbits (3.2-4.9 pounds each) were fed a 0.5% cholesterol chow diet for 12 weeks and randomly assigned to five groups (n=6 each); one control group (CG) and four groups treated with estriol (E), haloperidol (H), low-dose 17-hydroxyprogesterone (LDP), or high-dose 17-hydroxyprogesterone (HDP). Serum cholesterol (C) and triglyceride (T) were measured before and after the treatment period in all groups; serum progesterone was determined only in the LDP and HDP groups. After the treatment period, rabbits were euthanized for histomorphometric analysis of aortic plaque load. The rabbits were treated according to the Animal Welfare Act specifications.
(§3) Vehicle only (CG) and vehicle plus steroid (treated groups) were administered daily subcutaneously. Steroid doses were as follows: estriol, 1 mg/kg; haloperidol, 1 mg/kg for 2 weeks, 10 mg/kg for 2 weeks, and 5 mg/kg for 8 weeks; low-dose 17-hydroxyprogesterone, 10 mg/kg; high-dose 17-hydroxyprogesterone, 90 mg/kg.
(§4) After 91-100 days of treatment, twenty-seven rabbits were euthanized for histomorphometric analysis of aortic plaque load.

[5] = rabbit, in vivo
Procedure: as §2, §3, §4

CCN1CCCC1CNC(=O)c1cc(S(N)(=O)=O)ccc1OC (stereo not drawn) [Sulpiride, sulpiride]
% Phagocytic Cells (percent of monocytes/macrophages phagocytosing IgG sensitized cells) (human monocytes; 500 μg/ml PBS/methanol): 59%
PI (phagocytic index, ingested IgG-sensitized cells per 100 monocytes) (human monocytes; 500 μg/ml PBS/methanol): 232

C[C@]12CC[C@@H]3c4ccc(O)cc4CC[C@H]3[C@@H]1C[C@@H](O)[C@@H]2O [E, estriol]
atherosclerosis on gross examination of the aortas (in words) [1]: decreased atherosclerosis
Cholesterol Δ/ΔCG [2]: 0.71
Triglyceride Δ/ΔCG [2]: −0.03
aortic plaque load vs controls after controlling for changes in serum C and T levels (multiple regression) [3]: lower
(I/M)/(I/M)CG [3]: 0.02
rabbits that died or were sacrificed during treatment [4]: One rabbit in the E group died

CN1CCc2cc(Cl)c(O)cc2[C@@H](c2ccccc2)C1 [SCH-23390]
% Phagocytic Cells (percent of monocytes/macrophages phagocytosing IgG sensitized cells) (human monocytes; 50 μM PBS/methanol): 16%
PI (phagocytic index, ingested IgG-sensitized cells per 100 monocytes) (human monocytes; 50 μM PBS/methanol): 38

O=C(CCCN1CCC(O)(c2ccc(Cl)cc2)CC1)c1ccc(F)cc1 [Haloperidol, haloperidol]
Cholesterol Δ/ΔCG [2]: 0.86
Triglyceride Δ/ΔCG [2]: 0.81
tolerance of dose by rabbits [5]: poor tolerance
aortic plaque load vs controls after controlling for changes in serum C and T levels (multiple regression) [3]: lower
(I/M)/(I/M)CG [3]: 0.29
rabbits that died or were sacrificed during treatment [4]: two rabbits in he H group were sacrificed
% Phagocytic Cells (percent of monocytes/macrophages phagocytosing IgG sensitized cells) (human monocytes; 50 μM PBS/methanol): 0%
PI (phagocytic index, ingested IgG-sensitized cells per 100 monocytes) (human monocytes; 50 μM PBS/methanol): 0

From patent US6844333B1, “Method of treating atherosclerosis” (The Trustees of the University of Pennsylvania, priority 1999, dated 2005)
